Legend:
[1] = tested on: monoclonal antibody B3A1, raised in mice against bovine serum albumin-derivatized calcitroic acid
Protocol: Bound tracer is separated from free by second antibody precipitation.
(§1) Monoclonal antibodies binding calcitroic acid were detected in culture supernatants by a radioimmunoassay in which supernatants were exposed to microtiter plates coated with a calcitroic acid-egg albumin conjugate.
Radioligand was added after 1 hr pre-incubation in displacement assays; otherwise it was added immediately. After incubation for 18 hours, 10λ of rabbit anti-mouse Fab' (unrestricted gift of Dr. Judith Kapp-Pierce, Department of Pathology, Jewish Hospital of St. Louis and Washington University School of Medicine) was added with carrier mouse IgG and tubes were incubated for another 45 minutes at 4°. Alternatively, 20 λ of a partially purified preparation of carrier mouse IgG was added to the assay mixture. Then 40 λ of purified preparation of rabbit antimouse IgG was added and the mixture incubated for 4 hours at 4° C. […] After centrifugation at 1000×g for 20 minutes, the supernatants were aspirated, the pellets suspended in Budget Solve (Research Products International, Mount Prospect, Ill.) and their radioactivity determined in a Beckman 7000 Scintillation Counter (Beckman Instruments Company, Palo Alto, Calif.).

[2] = tested on: monoclonal antibody B2B4, raised in mice against bovine serum albumin-derivatized calcitroic acid; conditions: for concentration displacing half of the reversibly bound 3H-1,25-(OH)2 D3: monoclonal antibody b2b4, 18 h
Protocol: as §1
Radioligand was added after 1 hr pre-incubation in displacement assays; otherwise it was added immediately. […] Alternatively, 20 λ of a partially purified preparation of carrier mouse IgG was added to the assay mixture. Then 40 λ of purified preparation of rabbit antimouse IgG was added and the mixture incubated for 4 hours at 4° C. […] After centrifugation at 1000×g for 20 minutes, the supernatants were aspirated, the pellets suspended in Budget Solve (Research Products International, Mount Prospect, Ill.) and their radioactivity determined in a Beckman 7000 Scintillation Counter (Beckman Instruments Company, Palo Alto, Calif.).
For sucrose density gradient analysis, 350 λ of assay mixture or supernatant after immunoprecipitation was layered on a linear 5-20% sucrose gradient and centrifuged at 100,000×g for 17 hours. Molecular markers, human gamma globulin (16 mg/ml assay buffer) (Calbiochem-Behring, La Jolla, Calif.) and BSA (12 mg/ml assay buffer) were centrifuged identically. Fractions were collected through a bottom puncture apparatus and their radioactivity assayed.

KD of calcitriol less than the KD of this analog by [1]	concentration displacing half of the reversibly bound 3H-1,25-(OH)2 D3 [2] [ng/mL]	recognition by the antibody ([1]; at concentrations as great as 100 ng/ml)	Compound	displacement of radioligand from B2B4 (sucrose gradient) ([2]; 1 ng/ml of 1,25-(OH)2 D3 added prior to centrifugation, data not shown)
more than 6 orders of magnitude	0.068		C=C1CC[C@H](O)C/C1=C/C=C1\CCC[C@]2(C)[C@@H]([C@H](C)CCCC(C)(C)O)CC[C@@H]12 [25-OHD3, 25-hydroxycholecalciferol]	
about 41/2	0.048	does not recognize	C=C1CC[C@H](O)C/C1=C/C=C1\CCC[C@]2(C)[C@@H]([C@H](C)CCC(O)C(C)(C)O)CC[C@@H]12 (stereo partly drawn) [24,25-(OH)2 D3, 24,25-dihydroxycholecalciferol]	
			C=C1/C(=C\C=C2/CCC[C@]3(C)[C@@H]([C@H](C)CCCC(C)(C)O)CC[C@@H]23)C[C@@H](O)C[C@@H]1O [1,25-(OH)2 D3, 1,25-dihydroxycholecalciferol]	almost completely displaced
